We go through 1 molecule from PMC7024211, “Antifouling Napyradiomycins from Marine-Derived Actinomycetes Streptomyces aculeolatus” (Marine Drugs, 2020).

One data set deals with M. luteus. Kind of data set: Bacterial growth inhibition assay (OD600nm). Type of data set: cell-based, Micrococcus luteus. The text has this: Five marine bacterial species were used as models to assess antimicrofouling activity. The biofilm-forming marine bacteria Marinobacter hydrocarbonoclasticus DSM 8798 (ATCC 49840), Cobetia marina DSM 4741, Phaeobacter inhibens DSM 17,395, and Pseusooceanicola batsensis DSM 15,984 were obtained from DSMZ (Leibniz Institute DSMZ—German collection of Microorganisms and Cell Cultures) and Micrococcus luteus. Cultures were routinely grown in liquid marine broth (Carl Roth GmbH, Karlsruhe, Germany) with agitation (180 rpm) or on agar-supplemented marine broth, at 28 °C (M. hydrocarbonoclasticus and C. marina) or 30 °C (P. inhibens and P. batsensis). M. luteus was maintained in Brain Heart Infusion broth (BHI, Becton Dickinson, GmbH, Heidelberg, Germany) with agitation (180 rpm) or on agar-supplemented BHI, at 37 °C.
The antibacterial activity of the napyradiomycins (1–12) was assessed in 96-well polystyrene flat bottom microplates (Nunclon Delta Surface, Thermo Scientific, Roskilde, Denmark) following previously reported procedures. […] After 24 h (M. hydrocarbonoclasticus, C. marina) or 48 h (P. batsensis, P. inhibens, M. luteus) incubation, the OD600nm was determined (Molecular Devices, Spectra Max 190). […] The percentage of growth inhibition was calculated as the amount of growth relative to that of the bacterial species without added compounds (with the same amount of DMSO added). CuSO4 (5 μM), a potent antifouling agent used in antifouling paints, was used as reference.
All assays were performed in triplicate, and results are representative of the average and standard error of the mean (SEM). Statistical analysis was performed in GraphPad Prism 8.0.2 (San Diego, CA, USA), using one-way ANOVA followed by a Dunnett’s multiple comparisons test against the control (species grown with the same amount of DMSO added).

Data set [1] is described as follows: Mussel plantigrade larvae settlement, 15 h acute exposure assay. The class given is in vivo. Conditions: Mytilus galloprovincialis (mussel, plantigrade larvae), in vivo, no mortality at highest tested concentration 12 µg/mL. As for the experimental part:
(§1) Mussel (M. galloprovincialis) adhesive larvae (plantigrades) were used to assess in vivo the antifouling activity of napyradiomycins (1–12) towards macrofouling. Juvenile mussel aggregates were collected at the intertidal rocky shore during low spring tides, at Memória beach, Matosinhos, Portugal (41°13′59″ N; 8°43′28″ W). At the laboratory, immediately before the bioassays, mussel plantigrade larvae were screened and isolated from the juvenile aggregates using a binocular microscope (Olympus SZX2-ILLT, Hamburg, Germany) and washed with filtered seawater to remove organic debris. Only competent plantigrade larvae (those showing foot exploratory behavior) were selected and used in the exposure bioassays following previously validated procedures. Plantigrades were exposed in 24-well polystyrene plates for 15 h in the darkness at 18 °C. DMSO was used as solvent for crude extracts, fractions and pure compounds stock and working solutions. Working solutions were prepared by successive dilutions of stock solutions in DMSO and then diluted in filtered seawater to obtain the test solutions. DMSO concentration in test solutions was always 0.1%. Four well replicates were used per condition with five larvae per well. Two negative controls, one with ultra-pure water and the other with DMSO 0.1% were included in all bioassays, as well as a positive control with 5 μM CuSO4 (a potent antifouling agent). Anti-settlement bioactivity was determined by the presence/absence of fixed byssal threads produced by each individual larvae for all the conditions tested. […] Chi-square Pearsons goodness-of-fit test was applied to data in order to determine EC50. Significance was considered at p < 0.01 for all analyses, and 95% lower and upper confidence limits [95% LCL; UCL] were presented. Therapeutic ratio (LC50/EC50) was used to evaluate the effectiveness vs. toxicity of compounds [19, 21].

The subject of data set [2] is M. galloprovincialis plantigrade larvae. The data set is described as above. Type of data set: in vivo. Conditions: 95% LCL, UCL in brackets. As for the experimental part: as §1

In brackets after ≈: the same amount, converted by molar mass. Where only a bound is given, the exact number is not on record here.

For `CC(C)=CCCC(C)=CCC12OC(C)(C)C(Cl)CC1(Cl)C(=O)c1c(O)cc(O)cc1C2=O` (stereo not shown) [Napyradiomycin 1, napyradiomycin A1], in the data set with M. luteus (3.91 µg/mL), the “% growth inhibition M. luteus” value stood at 93.6 ± 1.1%. Moreover, in the data set with M. luteus (Micrococcus luteus, 0.98 µg/mL), the inhibition at 0.98 µg/mL stood at 42.9 ± 0.4%. The same molecule came in with an inhibition at 1.95 µg/mL in the data set on M. luteus (Micrococcus luteus, 1.95 µg/mL) of 69.8 ± 0.5%. For the same molecule, the inhibition at 3.91 µg/mL in the data set with M. luteus (Micrococcus luteus, 3.91 µg/mL) is > 90%. 7.81 µg/mL produced 96 ± 0.3% inhibition in the data set on M. luteus (Micrococcus luteus, 7.81 µg/mL). The molecule further returned an inhibition at 15.6 µg/mL in the data set with M. luteus (Micrococcus luteus, 15.60 µg/mL) of 96.5 ± 0.2%. Moreover, in the data set on M. luteus (Micrococcus luteus, 31.25 µg/mL), testing at 31.25 µg/mL gave an inhibition of 96.1 ± 0.5%. Further, the LC50 at 15 h in data set [1] was > 12 µg/mL. The “EC50 [Conf. limits] larval settlement” value in data set [2] is 0.655 [0.300; 0.906] µg/mL. Besides, the EC50 in data set [2] (Mytilus galloprovincialis, 15 h, read-out: EC50 [Conf. limits] larval settlement) is 0.66 µg/mL (≈ 1.37 µM).

One may read the inhibition as the share of the control response that was lost under treatment. Read a low inhibition as a response near the control. For orientation: LC50 means the concentration that kills 50% of the test population. As a reminder, the EC50 is the concentration needed to bring the measured effect to its halfway point.
